From patent US20170035894A1, “DRUG DELIVERY CONJUGATES FOR TREATING RESISTANT CANCER AND FOR USE IN COMBINATION THERAPY” (ENDOCYTE, INC., priority 2014, published 2017)

Columns and labels:
[1] = tested on: KB tumors; assay: Inhibition of tumor growth, s.c. KB tumors; assay type: in vivo, nu/nu mice; design: key to In vivo activity (e): CR=complete response, where tumor volume, as defined herein, during the observation period was zero for all test animals in the group; conditions: for CR (%) / Cures (%) / PR (%): TIW
Description: (§1) METHOD. Inhibition of Tumor Growth in Mice. Four to seven week-old mice (Balb/c or nu/nu strains) were purchased from Harlan Sprague Dawley, Inc. (Indianapolis, Ind.). Normal rodent chow contains a high concentration of folic acid (6 mg/kg chow); accordingly, test animals were maintained on a folate-free diet (Harlan diet #TD00434) for about 1 week before tumor implantation to achieve serum folate concentrations close to the range of normal human serum, and during the Method. For tumor cell inoculation, 1×10^6 M109 cells (a syngeneic lung carcinoma) in Balb/c strain, or 1×10^6 KB cells in nu/nu strain, in 100 μL were injected in the subcutis of the dorsal medial area (right axilla). Tumors were measured in two perpendicular directions every 2-3 days using a caliper, and their volumes were calculated as 0.5×L×W^2, where L=measurement of longest axis in mm and W=measurement of axis perpendicular to L in mm.
Dosing solutions were prepared fresh each day in PBS and administered through the lateral tail vein of the mice.
Tumor implantation. KB tumor cells were grown in folate-deficient RPMI 1640 with 5% FBS at 37° C. in a 5% CO2 humidified atmosphere. KB (1×10^6 cells per animal) tumor cells were inoculated subcutaneously […] post start of the folate deficient diet. Mice were dosed after the tumors reached between 100-150 mm3.
Preparation of dosing drug solutions. Dosing solutions were prepared when dosing began by weighing appropriate amounts of each compound, reconstituting in PBS, pH 7.4, sterile filtering the drug solution through a 0.22 µm PVDF syringe filter, and freezing aliquots for each day of dosing at −20° C.
Evaluation. Tumor size was monitored and body weight measured 3 times/week. Attention was given to gross animal morphology and behavior. Euthanasia was performed if the mice lost >20% of weight or when the tumors reached a size of 1500 mm3. Euthanasia was also performed at the researcher's discretion if mice lost a lot of weight in a short duration or when mice were approaching moribund conditions. Blood samples were collected by cardiac puncture from all viable animals from selected cohorts. Heart, lungs, liver, spleen, kidney, intestines, bone, brain and muscle were obtained immediately after euthanasia. The tissues were removed and stored in 10% neutral-buffered formalin.
For example, a 50% decrease in tumor volume from the initial measurement represents a partial response.
For example, a decrease in tumor volume where the measurements in two perpendicular directions are each about 2 mm or less represents a complete response.

[2] = tested on: KB-CR2000 (cisplatin resistant) tumors; assay: Cisplatin-resistant KB-CR2000 tumor model; assay type: in vivo, mice
Excerpt: METHOD. Human cisplatin-resistant cell line. […] In addition, regrowth of the tumor was only observed in 1/5 test animals.

[3] = tested on: KB-DR150 tumors; assay: Vinca resistant KB-DR150 tumor model; assay type: in vivo, immunodeficient (XID) nu/nu mice
[4] = tested on: M109 (lung carcinoma) tumors; assay: Inhibition of tumor growth, s.c. M109 tumors; assay type: in vivo, nu/nu mice
Description: as §1
Test animals (5/group) ere injected i.v., generally three times a week TIW), for 3 weeks with varying doses, such as with 1 μmol/kg to 5 μmol/kg, of the drug delivery conjugate or with an equivalent dose volume of PBS (control), unless otherwise indicated. Dosing solutions were prepared fresh each day in PBS and administered through the lateral tail vein of the mice.

[5] = Maximum tolerated dose (MTD); assay type: in vivo, female Sprague-Dawley rats
Description: Maximum tolerated dose (MTD). […] Test compounds were administered by i.v., BIW, 2 wks in female Sprague-Dawley rats. […] Histopathologic changes were not observed with doses of EC1456 at or below the MTD.

[6] = 2 μmol/kg i.v. TIW 2 weeks, nearly 70 day observation period

## CCCC(=O)OCN(C(=O)[C@@H](NC(=O)[C@H]1CCCCN1C)C(C)CC)[C@H](C[C@@H](OC(C)=O)c1nc(C(=O)N[C@@H](Cc2ccc(O)cc2)C[C@H](C)C(=O)NNC(=O)OCCSSC[C@@H](NC(=O)[C@H](CCC(=O)NC[C@H](O)[C@@H](O)[C@H](O)[C@H](O)CO)NC(=O)[C@@H](CCC(=O)O)NC(=O)[C@H](CCC(=O)NC[C@H](O)[C@@H](O)[C@H](O)[C@H](O)CO)NC(=O)[C@@H](CCC(=O)O)NC(=O)[C@H](CCC(=O)NC[C@H](O)[C@@H](O)[C@H](O)[C@H](O)CO)NC(=O)CC[C@@H](NC(=O)c2ccc(NCc3cnc4nc(N)[nH]c(=O)c4n3)cc2)C(=O)O)C(=O)O)cs1)C(C)C (stereo in doubt) [EC1456]
[1]; 0.5 μmol/kg, 3 weeks
  CR (%): 0%
  Cures (%): 0%
  PR (%): 60%
[1]; 0.67 μmol/kg, 2 weeks
  CR (%): 20%
  Cures (%): 0%
  PR (%): 60%
[1]; 1.0 μmol/kg, 2 weeks
  CR (%): 60%
  Cures (%): 60%
  PR (%): 40%
[1]; 2.0 μmol/kg, 2 weeks
  CR (%): 100%
  Cures (%): 100%
  PR (%): 0%
[1]; EC1456 1 μmol/kg BIW×2 + carboplatin 30 mg/kg BIW×2 + paclitaxel 10 mg/kg BIW×2
  efficacy of co-administration of EC1456 and carboplatin and paclitaxel: enhanced technical effect over EC1456 alone and the combination of carboplatin with paclitaxel
[1]; EC1456 1 μmol/kg BIW×2 + cisplatin 3 mg/kg BIW×3
  efficacy of co-administration of EC1456 and cisplatin: enhanced technical effect over both monotherapies
[1]; EC1456 1 μmol/kg BIW×2 vs cisplatin 3 mg/kg BIW×3
  efficacy of EC1456 alone compared to cisplatin: improved efficacy over cisplatin
[1]; EC1456 1 μmol/kg TIW×2 + avastin 5 mg/kg BIW×2
  efficacy of co-administration of EC1456 and bevacizumab: enhanced technical effect over both monotherapies
[1]; EC1456 1 μmol/kg TIW×2 vs avastin 5 mg/kg BIW×2
  efficacy of EC1456 alone compared to bevacizumab: improved efficacy over bevacizumab
[1]; EC1456 added to the carboplatin/paclitaxel combination
  cures, % of the mice: 100%
[1]; EC1456 alone 1 μmol/kg twice a week for 2 weeks
  PR's: 20%
[1]; P-1606 KB tumors, EC1456 1 μmol/kg BIW×2 + topotecan 5 mg/kg BIW×2
  efficacy of co-administration of EC1456 and topotecan: enhanced technical effect over both monotherapies
[1]; P-1606 KB tumors, EC1456 1 μmol/kg BIW×2 vs topotecan 5 mg/kg BIW×2
  efficacy of EC1456 alone compared to topotecan: improved efficacy over topotecan
[1]; P-1609 KB tumors, EC1456 1 μmol/kg TIW×5 + docetaxel 7 mg/kg BIW×3
  efficacy of co-administration of EC1456 and docetaxel: enhanced technical effect over both monotherapies
[1]; P-1609 KB tumors, EC1456 1 μmol/kg TIW×5 + topotecan 5 mg/kg TIW×5
  efficacy of co-administration of EC1456 and topotecan: enhanced technical effect over both monotherapies
[1]; P-1609 KB tumors, EC1456 1 μmol/kg TIW×5 vs docetaxel 7 mg/kg BIW×3
  efficacy of EC1456 alone compared to docetaxel: improved efficacy over docetaxel
[1]; P-1609 KB tumors, EC1456 1 μmol/kg TIW×5 vs topotecan 5 mg/kg TIW×5
  efficacy of EC1456 alone compared to topotecan: improved efficacy over topotecan
[1]; P-1635 KB tumors, EC1456 1 μmol/kg TIW + carboplatin 50 mg/kg TIW
  efficacy of co-administration of EC1456 and carboplatin: enhanced technical effect over both monotherapies
[1]; P-1635 KB tumors, EC1456 1 μmol/kg TIW×2 vs carboplatin 50 mg/kg TIW
  efficacy of EC1456 alone compared to carboplatin: improved efficacy over carboplatin
[1]; co-dosed with excess comparator compound EC0923 (50 or 100 μmol/kg)
  specific activity mediated by the folate receptor: competable
[1]; human KB tumors in mice, conjugated vs unconjugated drugs
  anti-tumor activity / response: dose responsive anti-tumor activity
[1]; intravenously 1 μmol/kg TIW, 2 wk
  complete response, test animals: 4/4
[1]; subcutaneous KB tumor in nu/nu mice
  In vivo activity (e): CR
[2]; [6]
  regrowth of the tumor, test animals: 1/5
  test animals cured (no regrowth): 4/5
[2]; 2 μmol/kg i.v. three times per week, 2 weeks
  CRs: 5/5
[3]; EC1456 2 μmol/kg TIW×2 + DOXIL 5 mg/kg BIW×2
  efficacy of co-administration of EC1456 and doxorubicin: enhanced technical effect over both monotherapies
[3]; EC1456 2 μmol/kg TIW×2 vs DOXIL 5 mg/kg BIW×2
  efficacy of EC1456 alone compared to doxorubicin (DOXIL): improved efficacy over doxorubicin
[4]; EC1456 2 μmol/kg TIW×2 + cisplatin 3 mg/kg BIW×2
  efficacy of co-administration of EC1456 and cisplatin: enhanced technical effect over both monotherapies
[4]; EC1456 2 μmol/kg TIW×2 vs cisplatin 3 mg/kg BIW×2
  efficacy of EC1456 alone compared to cisplatin: improved efficacy over cisplatin
[5]; doses at or below the MTD
  Histopathologic changes: not observed
[5]; female, Sprague-Dawley, rat, in vivo, iv, BIW, 2 wks
  MTD at 2 wks: ≥ 0.51 µmol/kg
[5]; i.v., BIW, 2 wks
  improvement of MTD over EC0531: 65%
